# Test results from US10857196B2, “Bicyclic peptide ligands and uses thereof” (BicycleTx Limited, priority 2017, dated 2020).
# Numbered stars: 1 amine (or outer) side, 2 acyl side, 3 side chain; on linkers, the order of the positions; unused ones are H or OH. Bridge positions count the residues as written; N and C are the ends. Square brackets hold non-standard residues; d marks the D form. Peptide text beside a SMILES is read from it. X8 = O=C(C[*:1])NCCn1c(=O)n(CCNC(=O)C[*:2])c(=O)n(CCNC(=O)C[*:3])c1=O; X7 = O=S(=O)(CC[*:1])N1CCN(S(=O)(=O)CC[*:2])CCN(S(=O)(=O)CC[*:3])CC1; X6 = O=S(=O)(CC[*:1])c1cc(S(=O)(=O)CC[*:2])cc(S(=O)(=O)CC[*:3])c1; X1 = O=C(CC[*:1])N1CC23CN(C(=O)CC[*:2])CC2(C1)CN(C(=O)CC[*:3])C3; X9 = O=C(C[*:1])N1CCOCCN(C(=O)C[*:2])CCOCCN(C(=O)C[*:3])CCOCC1; X3 = O=C(C[*:1])N1CC23CN(C(=O)C[*:2])CC2(C1)CN(C(=O)C[*:3])C3; X2 = O=C(CC[*:1])N1CCN(C(=O)CC[*:2])CCN(C(=O)CC[*:3])CC1; X5 = O=C(C[*:1])N1CCN(C(=O)C[*:2])CCN(C(=O)C[*:3])CC1; X4 = O=C(C[*:1])NCCN(CCNC(=O)C[*:2])CCNC(=O)C[*:3]; 1Nal = N[C@@H](Cc1cccc2ccccc12)C(=O)O; Tle = CC(C)(C)[C@H](N)C(=O)O
# Experiments:
# CAIX = CAIX (Homo sapiens, UniProt Q16790); assay: CAIX competition binding assay (competition fluorescence polarization); conditions: fluorescent ligand A-(CAECWIDGWVPC)-A-Sar6-K(Fl)
# Description: CAIX Competition Binding Assay Affinity of the peptides of the invention for human CAIX (Ki) was determined using a competition fluorescence polarization assay analogous to that described in Dubois et al. (2011) Radiotherapy and Oncology 99(3), 424-43 using A-(CAECWIDGWVPC)-A-Sar6-K(Fl) (SEQ ID NO: 5) as the fluorescent ligand.
# A Ki value designated “A” denotes a Ki of ≤50 nM; a Ki value designated “B” denotes a K, of >50 nM and ≤100 nM; a Ki value designated “C” denotes a Ki of >100 nM and ≤1,000 nM; and a Ki value designated “D” denotes a Ki of >1,000 nM.
# MT1-MMP hemopexin domain = MT1-MMP hemopexin domain (Homo sapiens, UniProt P50281); assay: Direct binding fluorescence polarization (anisotropy) assay
# Description: Direct Binding Fluorescence Polarization or Anisotropy Assays are performed by titrating a constant concentration of fluorescent tracer (here, the fluoresceinated bicyclic peptide to be studied) with its binding partner (here, the MT1-MMP hemopexin domain). As the concentration of binding partner increases during the titration, the polarization signal changes in proportion to the fraction of bound and unbound material. This allows determination of […] (Kd) quantitatively. Assay data can be fit using standard ligand binding equations.
# Typically, concentrations of the tracer are ideally well below the Kd of the tracer:titrant pair, and concentrations chosen are usually at ˜1 nM or less. The titrant (binding partner) concentration is varied from 0.1 nM up to typically 5 μM. The range is chosen such that the maximum change in fluorescent polarization can be observed. Buffers employed are phosphate buffered saline in the presence of 0.01% Tween. Experiments were run in black 384 well low-bind/low volume plates (Corning 3820), and the fluorescent polarization signal was measured using a BMG Pherastar FS plate reader. Fluorescent tracers referred to in the text are bicyclic peptides that have been fluoresceinated using 5,6-carboxyfluorescein. Fluoresceination may be performed on the N-terminal amino group of the peptide, which is separated from the bicycle core sequence by a sarcosine spacer (usually Sar5). This can be done during Fmoc solid phase synthesis or post-synthetically (after cyclization with the molecular scaffold reagent and purification) if the N-terminal amino group is unique to the peptide. Fluoresceination can also be performed on the C-terminus, usually on a Lysine introduced as the first C-terminal residue, which is then separated from the bicycle core sequence by a sarcosine spacer (usually Sar6). Thus, N-terminal tracers can have a molecular format described as Fluo-Gly-Sar5-A(BicycleCoreSequence), and (BicycleCoreSequence)-A-Sar6-K(Fluo) for a C-terminally fluoresceinated construct.
# Fluorescent tracers used in the Examples are A-(17-69)-A-Sar6-K(Fluo), A-(17-69-07)-A-Sar6-K(Fluo), and A-(17-69-12)-A-Sar6-K(Fluo). Due to the acidic nature of the 17-69 fluorescent peptides, they were typically prepared as concentrated DMSO stocks, from which dilution were prepared in 100 mM Tris pH 8 buffer.
# Results from the direct binding fluorescence polarization (anisotropy) assays is depicted in Table 3, below. A K, value designated “A” denotes a Ki of ≤50 nM; a Ki value designated “B” denotes a Ki of >50 nM and ≤100 nM; a Ki value designated “C” denotes a Ki of >100 nM and ≤1,000 nM; and a Ki value designated “D” denotes a Ki of >1,000 nM.
SMILES,Ki (CAIX),Ki (MT1-MMP hemopexin domain)
CC(C)[C@@H]1NC(=O)[C@H](Cc2c[nH]c3ccccc23)NC(=O)[C@@H]2CSCC(=O)N3CCN(CCN(CC3)C(=O)CSC[C@H](NC(=O)[C@H](C)NC(=O)CN(C)C(=O)CN(C)C(=O)CN(C)C(=O)CN(C)C(=O)CN(C)C(=O)CN(C)C(=O)CN(C)C(=O)CN(C)C(=O)CN(C)C(=O)CN(C)C(=O)CCN)C(=O)N[C@@H]([C@@H](C)O)C(=O)N[C@@H](CCC(=O)O)C(=O)N2)C(=O)CSC[C@@H](C(N)=O)NC(=O)[C@@H]2CCCN2C(=O)[C@H](C(C)C)NC(=O)[C@H](Cc2c[nH]c3ccccc23)NC(=O)CNC(=O)[C@H](CC(=O)O)NC1=O [Compound I-21],100 to 1000 nM,–
CC(C)[C@@H]1NC(=O)[C@H](Cc2c[nH]c3ccccc23)NC(=O)[C@@H]2CSCCS(=O)(=O)N3CCN(CCN(CC3)S(=O)(=O)CCSC[C@H](NC(=O)[C@H](C)NC(=O)CN(C)C(=O)CN(C)C(=O)CN(C)C(=O)CN(C)C(=O)CN(C)C(=O)CN(C)C(=O)CN(C)C(=O)CN(C)C(=O)CN(C)C(=O)CN(C)C(=O)CCN)C(=O)N[C@@H]([C@@H](C)O)C(=O)N[C@@H](CCC(=O)O)C(=O)N2)S(=O)(=O)CCSC[C@@H](C(=O)O)NC(=O)[C@@H]2CCCN2C(=O)[C@H](C(C)C)NC(=O)[C@H](Cc2c[nH]c3ccccc23)NC(=O)CNC(=O)[C@H](CC(=O)O)NC1=O [Compound I-62],100 to 1000 nM,–
CC(C)[C@@H]1NC(=O)[C@H](Cc2c[nH]c3ccccc23)NC(=O)[C@@H]2CSCC(=O)NCCN(CCNC(=O)CSC[C@@H](C(N)=O)NC(=O)[C@@H]3CCCN3C(=O)[C@H](C(C)C)NC(=O)[C@H](Cc3c[nH]c4ccccc34)NC(=O)CNC(=O)[C@H](CC(=O)O)NC1=O)CCNC(=O)CSC[C@H](NC(=O)[C@H](C)NC(=O)CN(C)C(=O)CN(C)C(=O)CN(C)C(=O)CN(C)C(=O)CN(C)C(=O)CN(C)C(=O)CN(C)C(=O)CN(C)C(=O)CN(C)C(=O)CN(C)C(=O)CCN)C(=O)N[C@@H]([C@@H](C)O)C(=O)N[C@@H](CCC(=O)O)C(=O)N2 [Compound I-63],≤ 50 nM,–
C[C@H](N)C(=O)N[C@H]1CSCC(=O)NCCN2CCNC(=O)CSC[C@@H](C(=O)O)NC(=O)[C@H](C(C)(C)C)NC(=O)[C@H](CC(=O)O)NC(=O)[C@H](Cc3ccc(O)cc3)NC(=O)[C@H](Cc3ccccc3)NC(=O)[C@H](CC(=O)O)NC(=O)[C@H](CCC(=O)O)NC(=O)[C@H](CSCC(=O)NCC2)NC(=O)[C@@H](C)NC(=O)[C@H](Cc2cccc3ccccc23)NC(=O)[C@H](CCC(=O)O)NC(=O)[C@H](CC(N)=O)NC(=O)[C@@H](C)NC1=O [Compound I-60] (H-AC[dA]NE[1Nal][dA]CEDFYD[Tle]C-OH; linker 2-8-15 via X4),–,100 to 1000 nM
C[C@H](N)C(=O)N[C@H]1CSCC(=O)N2CCN3CCN(CC2)C(=O)CSC[C@H](NC(=O)[C@@H](C)NC(=O)[C@H](Cc2cccc4ccccc24)NC(=O)[C@H](CCC(=O)O)NC(=O)[C@H](CC(N)=O)NC(=O)[C@@H](C)NC1=O)C(=O)N[C@@H](CCC(=O)O)C(=O)N[C@@H](CC(=O)O)C(=O)N[C@@H](Cc1ccccc1)C(=O)N[C@@H](Cc1ccc(O)cc1)C(=O)N[C@@H](CC(=O)O)C(=O)N[C@@H](C(C)(C)C)C(=O)N[C@H](C(N)=O)CSCC3=O [Compound I-54] (H-AC[dA]NE[1Nal][dA]CEDFYD[Tle]C-NH2; linker 2-8-15 via X5),–,≤ 50 nM
C[C@H](N)C(=O)N[C@H]1CSCC(=O)N2CCOCCN3CCOCCN(CCOCC2)C(=O)CSC[C@H](NC(=O)[C@@H](C)NC(=O)[C@H](Cc2cccc4ccccc24)NC(=O)[C@H](CCC(=O)O)NC(=O)[C@H](CC(N)=O)NC(=O)[C@@H](C)NC1=O)C(=O)N[C@@H](CCC(=O)O)C(=O)N[C@@H](CC(=O)O)C(=O)N[C@@H](Cc1ccccc1)C(=O)N[C@@H](Cc1ccc(O)cc1)C(=O)N[C@@H](CC(=O)O)C(=O)N[C@@H](C(C)(C)C)C(=O)N[C@H](C(N)=O)CSCC3=O [Compound I-58] (H-AC[dA]NE[1Nal][dA]CEDFYD[Tle]C-NH2; linker 2-8-15 via X9),–,50 to 100 nM
C[C@H](N)C(=O)N[C@H]1CSCC(=O)NCCn2c(=O)n3c(=O)n(c2=O)CCNC(=O)CSC[C@H](NC(=O)[C@@H](C)NC(=O)[C@H](Cc2cccc4ccccc24)NC(=O)[C@H](CCC(=O)O)NC(=O)[C@H](CC(N)=O)NC(=O)[C@@H](C)NC1=O)C(=O)N[C@@H](CCC(=O)O)C(=O)N[C@@H](CC(=O)O)C(=O)N[C@@H](Cc1ccccc1)C(=O)N[C@@H](Cc1ccc(O)cc1)C(=O)N[C@@H](CC(=O)O)C(=O)N[C@@H](C(C)(C)C)C(=O)N[C@H](C(N)=O)CSCC(=O)NCC3 [Compound I-52] (H-AC[dA]NE[1Nal][dA]CEDFYD[Tle]C-NH2; linker 2-8-15 via X8),–,100 to 1000 nM
C[C@H](N)C(=O)N[C@H]1CSCC(=O)N2CC34CN5CC3(C2)CN(C4)C(=O)CSC[C@H](NC(=O)[C@@H](C)NC(=O)[C@H](Cc2cccc3ccccc23)NC(=O)[C@H](CCC(=O)O)NC(=O)[C@H](CC(N)=O)NC(=O)[C@@H](C)NC1=O)C(=O)N[C@@H](CCC(=O)O)C(=O)N[C@@H](CC(=O)O)C(=O)N[C@@H](Cc1ccccc1)C(=O)N[C@@H](Cc1ccc(O)cc1)C(=O)N[C@@H](CC(=O)O)C(=O)N[C@@H](C(C)(C)C)C(=O)N[C@H](C(N)=O)CSCC5=O [Compound I-57] (H-AC[dA]NE[1Nal][dA]CEDFYD[Tle]C-NH2; linker 2-8-15 via X3),–,100 to 1000 nM
C[C@H](N)C(=O)N[C@H]1CSCCC(=O)N2CCN3CCN(CC2)C(=O)CCSC[C@H](NC(=O)[C@@H](C)NC(=O)[C@H](Cc2cccc4ccccc24)NC(=O)[C@H](CCC(=O)O)NC(=O)[C@H](CC(N)=O)NC(=O)[C@@H](C)NC1=O)C(=O)N[C@@H](CCC(=O)O)C(=O)N[C@@H](CC(=O)O)C(=O)N[C@@H](Cc1ccccc1)C(=O)N[C@@H](Cc1ccc(O)cc1)C(=O)N[C@@H](CC(=O)O)C(=O)N[C@@H](C(C)(C)C)C(=O)N[C@H](C(N)=O)CSCCC3=O [Compound I-55] (H-AC[dA]NE[1Nal][dA]CEDFYD[Tle]C-NH2; linker 2-8-15 via X2),–,50 to 100 nM
C[C@H](N)C(=O)N[C@H]1CSCCC(=O)N2CC34CN5CC3(C2)CN(C4)C(=O)CCSC[C@H](NC(=O)[C@@H](C)NC(=O)[C@H](Cc2cccc3ccccc23)NC(=O)[C@H](CCC(=O)O)NC(=O)[C@H](CC(N)=O)NC(=O)[C@@H](C)NC1=O)C(=O)N[C@@H](CCC(=O)O)C(=O)N[C@@H](CC(=O)O)C(=O)N[C@@H](Cc1ccccc1)C(=O)N[C@@H](Cc1ccc(O)cc1)C(=O)N[C@@H](CC(=O)O)C(=O)N[C@@H](C(C)(C)C)C(=O)N[C@H](C(N)=O)CSCCC5=O [Compound I-56] (H-AC[dA]NE[1Nal][dA]CEDFYD[Tle]C-NH2; linker 2-8-15 via X1),–,100 to 1000 nM
C[C@H](N)C(=O)N[C@H]1CSCCS(=O)(=O)N2CCN3CCN(CC2)S(=O)(=O)CCSC[C@@H](NC(=O)[C@@H](C)NC(=O)[C@H](Cc2cccc4ccccc24)NC(=O)[C@H](CCC(=O)O)NC(=O)[C@H](CC(N)=O)NC(=O)[C@@H](C)NC1=O)C(=O)N[C@@H](CCC(=O)O)C(=O)N[C@@H](CC(=O)O)C(=O)N[C@@H](Cc1ccccc1)C(=O)N[C@@H](Cc1ccc(O)cc1)C(=O)N[C@@H](CC(=O)O)C(=O)N[C@@H](C(C)(C)C)C(=O)N[C@H](C(N)=O)CSCCS3(=O)=O [Compound I-59] (H-AC[dA]NE[1Nal][dA][dC]EDFYD[Tle]C-NH2; linker 2-8-15 via X7),–,> 1000 nM
C[C@H](N)C(=O)N[C@H]1CSCCS(=O)(=O)c2cc3cc(c2)S(=O)(=O)CCSC[C@@H](NC(=O)[C@@H](C)NC(=O)[C@H](Cc2cccc4ccccc24)NC(=O)[C@H](CCC(=O)O)NC(=O)[C@H](CC(N)=O)NC(=O)[C@@H](C)NC1=O)C(=O)N[C@@H](CCC(=O)O)C(=O)N[C@@H](CC(=O)O)C(=O)N[C@@H](Cc1ccccc1)C(=O)N[C@@H](Cc1ccc(O)cc1)C(=O)N[C@@H](CC(=O)O)C(=O)N[C@@H](C(C)(C)C)C(=O)N[C@H](C(N)=O)CSCCS3(=O)=O [Compound I-61] (H-AC[dA]NE[1Nal][dA][dC]EDFYD[Tle]C-NH2; linker 2-8-15 via X6),–,≤ 50 nM
